Experimental data from US6689779B2, “Oxazolidinone derivatives and a process for the preparation thereof” (priority 2000, dated 2004).
Values after ≈ are worked out from the molar mass of the structure shown.

These compounds were tested on ATCC 35837: Ethanmbutol resistant Mycobacterium tuberculosis (assay: Assay for in vitro antibacterial activity, agar dilution method: ATCC 35837). Settings: Mycobacterium tuberculosis, ATCC35837, read-out: Antibacterial Activity (MIC50) ATCC 35837.
Assay type: cell-based

SMILES | MIC50 [µg/mL]
N[C@@H]1CON=C1O [Cycloserine, reference compound] | 6.25 (≈ 61.2 µM)
CC(=O)NC[C@H]1CN(c2ccc(N3CCOCC3)c(F)c2)C(=O)O1 [Example U-100766, reference compound] | 1.56 (≈ 4.62 µM)
CO[C@H]1/C=C/O[C@@]2(C)Oc3c(C)c(O)c4c(O)c(c(/C=N/N5CCN(C)CC5)c(O)c4c3C2=O)NC(=O)/C(C)=C\C=C\[C@H](C)[C@H](O)[C@@H](C)[C@@H](O)[C@@H](C)[C@H](OC(C)=O)[C@@H]1C [Rifampin, reference compound] | 0.2 (≈ 0.243 µM)

Same assay, conditions: agar dilution method; Ethanmbutol resistant Mycobacterium tuberculosis

SMILES | Antibacterial Activity (MIC50) ATCC 35837 [µg/mL]
CC(=O)NC[C@H]1CN(c2ccc(-c3ccc(-n4cncn4)nc3)c(F)c2)C(=O)O1 [Exmp. 129, (S)-[N-3-(4-(2-(1,2,4-triazol-1-yl)pyridin-5-yl)-3-fluorophenyl)-2-oxo-5-oxazolidinyl]methyl acetamide] | 0.2
CC(=O)NC[C@H]1CN(c2ccc(-c3ccc(-n4cnnn4)nc3)c(F)c2)C(=O)O1 [Exmp. 136, (S)-(N-3-(4-(2-(1-tetrazolyl)-pyridin-5-yl)-3-fluorophenyl)-2-oxo-5-oxazolidinyl)methyl acetamide] | 0.1
CC(=O)NC[C@H]1CN(c2ccc(-c3ccc(-c4nnc(C)o4)nc3)c(F)c2)C(=O)O1 [Exmp. 137, (S)-[N-3-(4-(2-(5-methyl-(1,3,4)-oxadiazol-2-yl)-pyridin-5-yl)-3-fluorophenyl)-2-oxo-5-oxazolidinyl]methyl acetamide] | 0.1
CC(=O)NC[C@H]1CN(c2ccc(-c3ccc(-c4noc(C)n4)nc3)c(F)c2)C(=O)O1 [Exmp. 138, (S)-[N-3-(4-(2-(5-methyl-(1,2,4)-oxadiazol-3-yl)pyridin-5-yl)-3-fluorophenyl)-2-oxo-5-oxazolidinyl]methyl acetamide] | 0.1
CC(=O)NC[C@H]1CN(c2ccc(-c3ccc(-c4nnnn4C)nc3)c(F)c2)C(=O)O1 [Exmp. 139, (S)-[N-3-(4-(2-(1-methyl-5-tetrazolyl)-pyridin-5-yl)-3-fluorophenyl)-2-oxo-5-oxazolidinyl]methyl acetamide] | 0.1
CC(=O)NC[C@H]1CN(c2ccc(-c3ccc(-c4nnn(C)n4)nc3)c(F)c2)C(=O)O1 [Exmp. 140, (S)-[N-3-(4-(2-(2-methyl-5-tetrazolyl)-pyridin-5-yl)-3-fluorophenyl)-2-oxo-5-oxazolidinyl]methyl acetamide] | 0.1
CC(=O)NC[C@H]1CN(c2ccc(-c3ccc(N4CCOC4=O)nc3)c(F)c2)C(=O)O1 [Exmp. 143, (S)-[N-3-(4-(2-(2-oxo-(1,3)-oxazolidin-3-yl)-pyridin-5-yl)-3-fluorophenyl)-2-oxo-5-oxazolidinyl]methyl acetamide] | 0.1
CC(=O)NC[C@H]1CN(c2ccc(-c3ccc(-c4nnn[nH]4)nc3)c(F)c2)C(=O)O1 [Exmp. 152, (S)-[N-3-(4-(2-(5-Tetrazolyl)-5-pyridinyl)-3-fluorophenyl)-2-oxo-5-oxazolidinyl]methyl Acetamide] | >25
